Source: patent US11166924B2, “N-methyl-d-aspartate receptor allosteric modulators and methods for their use” (Qingdao Primedicine Pharmaceutical Company, Ltd., priority 2016, dated 2021)

Target: T1, GluN1/GluN2A NMDARs (Rattus norvegicus, UniProt P35439+Q00959)
T1 construct: expressed in transfected cells; host or cells: HEK293
Experiment: Whole-cell patch clamp recordings in HEK293 cells transfected with GluN1/GluN2A
Type: cell-based
Details: for Normalized Potentiation / EC50: Table 1; for Normalized Potentiation: positive modulation of GluN1/GluN2A NMDARs, concentration not given; for EC50: potentiation, read-out: EC50
Method: Cells were transfected with a combination of pcDNA3-CMV expression vectors, each of which expressed one of the rat recombinant (GluN2AWT, GluN1WT, GluN2BWT) subunits. The sequences of all plasmids were confirmed by automated DNA sequencing. Human Embryonic Kidney 293 (HEK293 cells) were cultured in Dulbecco's Modified Eagle's Medium (DMEM) (Invitrogen) supplemented with 10% fetal bovine serum (FBS). When HEK293 cells achieved 90% confluence, plasmids of either GluN1 & GluN2A or GluN1 & GluN2B were co-transfected into the cells using Lipofectamine 2000 (Invitrogen, 11668019) according to manufacturer's instructions. HEK293 cells were then maintained in the 37° C. incubator with […] and 5% CO2 for 48 hrs before being used in experiments. The transfection ratios for the NMDAR subunit combinations were all 1:1 (GluN1/GluN2A or GluN1/GluN2B).
Whole cell patch-clamp recordings were performed under voltage-clamp mode using an Axopatch 200B or 1D patch-clamp amplifier (Molecular Devices). Whole-cell currents were recorded at a holding potential of −60 mV unless indicated elsewhere, and signals were filtered at 2 kHz, digitized at 10 kHz (Digidata 1322A). Recording pipettes (3-5 MΩ) were filled with intracellular solution containing (mM): CsCl 140, HEPES 10, Mg-ATP 4, QX-314 5, pH 7.20; osmolarity, 290-295 mOsm. BAPTA (10 mM) was added in the intracellular solution (unless otherwise specified). The coverslips were continuously superfused with extracellular solution containing (mM): NaCl 140, KCl 5.4, HEPES 10, CaCl2 1.3, glucose 20, pH 7.4; osmolarity, 305-315 mOsm. NMDA-induced currents were applied by NMDA through perfusion fast-step (Warner Instruments). With perfusion fast-step system, NMDA application was achieved by using a two-square barrel glass tubing and depending on the age of the cultured neurons, CNQX (10 μM), TTX (0.5 μM) or BIC (10 μM) were added in the extracellular solution to minimize the activation of ionotropic glutamate receptors and voltage-gated sodium channels, respectively. All experiments were performed at room temperature. Recordings from at least six HEK293 cells/neurons were performed for all active compounds. Data were pooled among HEK293 cells or primary neurons and composite dose-response data were fitted by the equation Percentage Response=100×Relative Efficacy/[1+(EC50/Concentration)nH], where EC50 is the concentration of agonist that produces a half-maximal response, relative efficacy is the response at maximally effective concentration relative to the maximal response of glutamate, and nH is the Hill slope.
GluN1/GluN2A NMDAR subtypes are an attractive target for positive allosteric modulation. The present inventors employed in silico computational drug discovery methods to conduct a virtual screen of purchasable lead-like compounds from the ZINC database (Irwin, J., et al. Abstr Pap Am Chem Soc (2005) 230:U1009) and some synthetic compounds to identify potential GluN1/GluN2A-NMDAR modulators. The in silico methods included large-scale docking against the interstice interface of the GluN1/GluN2A heterodimer and consensus scoring to select compounds for empirical testing. Candidate compounds were further screened by using GluN1/GluN2A transiently transfected in human embryonic kidney (HEK293) cells and tested by whole-cell patch clamp recordings.
The inventors used transiently transfected HEK293 cells expressing either GluN1/GluN2A or GluN1/GluN2B NMDARs and tested by whole-cell voltage patch clamp recordings to see whether selected compounds were controlling the subtype selectivity profile of the drugs.
Whole-cell patch clamp recordings were performed to measure glutamate evoked currents with chloride-based pipette solutions at a holding potential of −60 mV.

T1 sequence (Q00959 23-1464, other chains not shown): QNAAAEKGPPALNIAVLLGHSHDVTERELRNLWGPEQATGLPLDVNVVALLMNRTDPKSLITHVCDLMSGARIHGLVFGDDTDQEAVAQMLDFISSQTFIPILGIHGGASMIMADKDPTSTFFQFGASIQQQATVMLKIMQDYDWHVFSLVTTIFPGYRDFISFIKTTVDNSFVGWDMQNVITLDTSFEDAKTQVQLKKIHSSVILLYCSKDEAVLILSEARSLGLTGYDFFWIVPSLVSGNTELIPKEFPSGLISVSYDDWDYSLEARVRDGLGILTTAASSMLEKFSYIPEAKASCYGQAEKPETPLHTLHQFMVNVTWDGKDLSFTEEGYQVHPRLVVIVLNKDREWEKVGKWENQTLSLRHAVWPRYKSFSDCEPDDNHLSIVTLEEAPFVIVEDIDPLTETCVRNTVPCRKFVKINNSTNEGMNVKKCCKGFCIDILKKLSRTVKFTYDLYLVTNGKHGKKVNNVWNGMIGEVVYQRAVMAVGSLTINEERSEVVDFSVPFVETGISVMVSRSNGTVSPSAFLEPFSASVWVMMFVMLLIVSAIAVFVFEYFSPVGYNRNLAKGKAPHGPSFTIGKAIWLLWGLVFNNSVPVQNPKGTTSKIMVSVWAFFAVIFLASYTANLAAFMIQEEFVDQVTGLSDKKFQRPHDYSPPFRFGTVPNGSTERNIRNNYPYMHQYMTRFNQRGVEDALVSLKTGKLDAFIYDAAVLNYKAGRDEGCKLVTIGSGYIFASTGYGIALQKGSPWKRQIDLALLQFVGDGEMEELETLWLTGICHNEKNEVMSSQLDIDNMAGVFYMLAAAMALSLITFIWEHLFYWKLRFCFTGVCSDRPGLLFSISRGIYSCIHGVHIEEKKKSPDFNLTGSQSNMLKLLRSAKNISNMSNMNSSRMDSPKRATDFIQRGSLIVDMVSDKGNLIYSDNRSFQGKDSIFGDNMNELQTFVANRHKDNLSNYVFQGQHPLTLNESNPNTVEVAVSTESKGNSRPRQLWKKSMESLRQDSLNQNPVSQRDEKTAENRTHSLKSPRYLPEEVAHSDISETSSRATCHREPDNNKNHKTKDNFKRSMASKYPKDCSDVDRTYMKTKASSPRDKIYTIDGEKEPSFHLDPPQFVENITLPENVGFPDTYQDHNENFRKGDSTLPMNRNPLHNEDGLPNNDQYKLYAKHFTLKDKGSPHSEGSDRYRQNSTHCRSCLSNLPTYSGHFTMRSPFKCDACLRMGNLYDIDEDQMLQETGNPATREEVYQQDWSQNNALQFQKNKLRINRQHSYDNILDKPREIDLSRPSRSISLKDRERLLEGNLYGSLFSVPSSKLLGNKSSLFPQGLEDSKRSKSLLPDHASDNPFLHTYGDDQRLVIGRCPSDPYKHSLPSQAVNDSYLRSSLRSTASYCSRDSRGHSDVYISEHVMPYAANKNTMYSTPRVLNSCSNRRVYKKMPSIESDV

SMILES	Normalized Potentiation	EC50	Selectivity for GluN1/GluN2A versus GluN1/GluN2B NMDARs (FIG. 2, HEK293 cells expressing GluN1/GluN2A and GluN1/GluN2B)
CCOc1cc(Br)c(Br)c(/C=N/NC(=O)c2ccccc2C)c1O [Npam04C, (E)-N′-(2,3-dibromo-5-ethoxy-6-hydroxybenzylidene)-2-methylbenzohydrazide]	292.08 ± 44.70%		
CCOc1cc(Cl)c(Cl)c(/C=N/NC(=O)c2cccc(Br)c2)c1O [Npam32, (E)-3-bromo-N′-(2,3-dichloro-5-ethoxy-6-hydroxybenzylidene)benzohydrazide]	374.58 ± 19.07%	250 nM	
COc1cc(Cl)cc(/C=N/NC(=O)c2ccccc2Br)c1O [Npam20, (E)-2-bromo-N′-(5-chloro-2-hydroxy-3-methoxybenzylidene)benzohydrazide]	131.85 ± 23.20%		
CCOc1cc(Cl)c(Cl)c(/C=N/NCc2ccccc2)c1O [Npam57, 2-[(1E)-(2-benzylhydrazin-1-ylidene)methyl]-3,4-dichloro-6-ethoxyphenol]	105.85 ± 12.62%		
COc1cc(Br)c(Br)c(/C=N/NC(=O)c2cccnc2)c1O [Npam39, (E)-N′-(2,3-dibromo-6-hydroxy-5-methoxybenzylidene)nicotinohydrazide]	51.95 ± 11.29%		
CCOc1cc(/C=N/NC(=O)c2ccccc2Br)cc(Br)c1O [Npam27, (E)-2-bromo-N′-(3-bromo-5-ethoxy-4-hydroxybenzylidene)benzohydrazide]	−0.278 ± 5.62%		
CCOc1cc(Cl)c(Cl)c(/C=N/NC(=O)NC(=O)COc2c(C)ccc(C)c2C)c1O [Npam08, (E)-2-(2,3-dichloro-5-ethoxy-6-hydroxybenzylidene)-N-(2-(2,3,6-trimethylphenoxy)acetyl)hydrazinecarboxamide]	362.76 ± 38.44%		
CCOc1cc(Cl)c(Cl)c(/C=N/NC(=O)c2ccc(C)cc2Cl)c1O [Npam44, (E)-2-chloro-N′-(2,3-dichloro-5-ethoxy-6-hydroxybenzylidene)-4-methylbenzohydrazide]	443.25 ± 83.42%	150 nM	
COc1cc(/C=N/NC(=O)c2ccccc2Br)c(Br)c(Br)c1O [Npam40, (E)-2-bromo-N′-(2,3-dibromo-4-hydroxy-5-methoxybenzylidene)benzohydrazide]	2.51 ± 3.79%		
COc1cc(Br)c(Br)c(/C=N/NC(=O)c2ccccc2Br)c1O [Npam05, (E)-2-bromo-N′-(2,3-dibromo-6-hydroxy-5-methoxybenzylidene)benzohydrazide]	196.54 ± 21.20%		
O=C(N/N=C/c1cccc(O)c1O)c1ccc(Cl)cc1Cl [Npam36, (E)-2,4-dichloro-N′-(2,3-dihydroxybenzylidene)benzohydrazide]	4.02 ± 4.79%		
COc1cc(Cl)cc(/C=N/NC(=O)c2ccccc2Br)c1O [Npam29, (E)-2-bromo-N′-(5-chloro-2-hydroxy-3-methoxybenzylidene)benzohydrazide]	120.68 ± 9.61%		
CCOc1cc(Br)cc(/C=N/NC(=O)c2ccncc2)c1O [Npam28, N′-[(1E)-(5-bromo-3-ethoxy-2-hydroxyphenyl)methylidene]pyridine-4-carbohydrazide]	30.25 ± 2.87%		
CCOc1cc(Br)cc(/C=N/NC(=O)c2ccccc2Br)c1O [Npam58, (E)-2-bromo-N′-(5-bromo-3-ethoxy-2-hydroxybenzylidene)benzohydrazide]	163.60 ± 13.94%	800 nM	selective for GluN1/GluN2A NMDARs
COc1cccc(/C=N/NC(=O)c2ccccc2C)c1O [Npam42, (E)-N′-(2-hydroxy-3-methoxybenzylidene)-2-methylbenzohydrazide]	43.04 ± 6.55%		
CCOc1cccc(/C=N/NC(=O)c2cccc(Cl)c2C)c1O [Npam07, (E)-3-chloro-N′-(3-ethoxy-2-hydroxybenzylidene)-2-methylbenzohydrazide]	103.77 ± 11.00%		

SMILES	Normalized Potentiation	EC50	Selectivity for GluN1/GluN2A versus GluN1/GluN2B NMDARs (FIG. 2, HEK293 cells expressing GluN1/GluN2A and GluN1/GluN2B)
CCOc1cc(Cl)c(Cl)c(/C=N/NC(=O)c2ccccc2OC)c1O [Npam53, (E)-N′-(2,3-dichloro-5-ethoxy-6-hydroxybenzylidene)-2-methoxybenzohydrazide]	110.23 ± 4.70%		
CCOc1cc(Br)cc(/C=N/NC(=O)c2ccc(F)cc2)c1O [Npam22, (E)-N′-(5-bromo-3-ethoxy-2-hydroxybenzylidene)-4-fluorobenzohydrazide]	59.83 ± 7.55%		
O=C(N/N=C/c1cc(Cl)cc(Cl)c1O)c1ccccc1Br [Npam26, (E)-2-bromo-N′-(3,5-dichloro-2-hydroxybenzylidene)benzohydrazide]	175.08 ± 14.42%		
Cc1ccccc1C(=O)N/N=C/c1cccc(O)c1O [Npam34, (E)-N′-(2,3-dihydroxybenzylidene)-2-methylbenzohydrazide]	−12.47 ± 2.06%		
CCOc1cc(Br)cc(/C=N/NC(=O)c2ccc(C)cc2Cl)c1O [Npam46, (E)-N′-(5-bromo-3-ethoxy-2-hydroxybenzylidene)-2-chloro-4-methylbenzohydrazide]	466.57 ± 37.78%	250 nM	
CCOc1cc(Br)c(Br)c(/C=N/NC(=O)c2ccccc2OC)c1O [Npam12, (E)-N′-(2,3-dibromo-5-ethoxy-6-hydroxybenzylidene)-2-methoxybenzohydrazide]	118.15 ± 35.54%		
CCOc1cc(Cl)c(Cl)c(/C=N/N(C)C(=O)c2ccccc2)c1O [Npam52, N′-[(1E)-(2,3-dichloro-5-ethoxy-6-hydroxyphenyl)methylidene]-N-methylbenzohydrazide]	175.53 ± 25.9%		
CCOc1cc(Br)c(Br)c(/C=N/NC(=O)c2cccc(Cl)c2C)c1O [Npam10, 3-chloro-N′-[(1E)-(2,3-dibromo-5-ethoxy-6-hydroxyphenyl)methylidene]-2-methylbenzohydrazide]	206.28 ± 33.62%		
C=CCc1cc(/C=N/NC(=O)c2ccccc2Br)c(O)c(OC)c1 [Npam03, (E)-N′-(5-allyl-2-hydroxy-3-methoxybenzylidene)-2-bromobenzohydrazide]	97.62 ± 6.03%		
CCOc1cc(Cl)c(Cl)c(/C=N/NC(=O)c2cc(Cl)ccc2Br)c1O [Npam49, 2-bromo-5-chloro-N′-[(1E)-(2,3-dichloro-5-ethoxy-6-hydroxyphenyl)methylidene]benzohydrazide]	530.06 ± 114.00%	190 nM	
CCOc1cc(Cl)c(Cl)c(/C=N/NC(=O)Cc2ccccc2)c1O [Npam56, N′-[(1E)-(2,3-dichloro-5-ethoxy-6-hydroxyphenyl)methylidene]-2-phenylacetohydrazide]	21.48 ± 2.89%		
CCOc1cc(Br)cc(/C=N/NC(=O)c2ccccc2C)c1O [Npam82, (E)-N′-(5-bromo-3-ethoxy-2-hydroxybenzylidene)-2-methylbenzohydrazide]	196.21 ± 35.93%		
CCOc1cc(Br)cc(/C=N/NC(=O)c2ccc3c(c2)OCCO3)c1O [Npam23, (E)-N′-(5-bromo-3-ethoxy-2-hydroxybenzylidene)-2,3-dihydrobenzo[b][1,4]dioxine-6-carbohydrazide]	87.00 ± 6.48%		
CCOc1cc([N+](=O)[O-])cc(/C=N/NC(=O)c2cc(Cl)ccc2O)c1O [Npam24, (E)-5-chloro-N′-(3-ethoxy-2-hydroxy-5-nitrobenzylidene)-2-hydroxybenzohydrazide]	61.57 ± 8.15%		
COc1cc(Br)c(Br)c(/C=N/NC(=O)c2ccc(C(C)(C)C)cc2)c1O [Npam35, (E)-4-(tert-butyl)-N′-(2,3-dibromo-6-hydroxy-5-methoxybenzylidene)benzohydrazide]	512.24 ± 28.67%	220 nM	
